Results published in PMC2364081, “Antagonists of retinoic acid receptors (RARs) are potent growth inhibitors of prostate carcinoma cells” (British Journal of Cancer, 2001).

Key:
RARγ = biological target: T1, RARγ (Homo sapiens, UniProt P13631); assay: Binding to baculovirus-expressed RARγ; set-up: made in house; details: baculovirus-expressed receptor
T1 sequence (P13631 1-454): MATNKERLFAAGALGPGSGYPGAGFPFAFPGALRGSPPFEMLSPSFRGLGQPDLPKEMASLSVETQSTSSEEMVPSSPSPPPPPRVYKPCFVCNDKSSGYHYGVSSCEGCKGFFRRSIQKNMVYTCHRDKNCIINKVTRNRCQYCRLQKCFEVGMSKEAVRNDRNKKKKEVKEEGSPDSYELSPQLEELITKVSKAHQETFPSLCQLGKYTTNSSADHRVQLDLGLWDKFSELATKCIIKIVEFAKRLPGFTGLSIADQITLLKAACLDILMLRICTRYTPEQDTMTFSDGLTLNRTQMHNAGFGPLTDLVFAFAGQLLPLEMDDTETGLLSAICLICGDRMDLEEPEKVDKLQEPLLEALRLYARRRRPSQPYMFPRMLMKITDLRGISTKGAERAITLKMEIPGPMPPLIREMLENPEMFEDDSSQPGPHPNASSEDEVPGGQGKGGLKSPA
Excerpt: (§1) Prostate cancer is one of the most common cancers in European and American males and has a high mortality rate (Landis et al, 1998; Rosenthal, 1998). Early disease is managed conservatively in Europe although in selected patients surgery is curative. In advanced disease, androgen ablation can produce symptomatic improvement, but the tumour often re-emerges in an androgen- independent and incurable form. One proposed treatment for androgen-independent prostate carcinoma is differentiation ther- apy, in which agents such as all-trans-retinoic acid (ATRA), 9-cis- retinoic acid and 1, 25-dihydroxyvitamin D3 (D3 ) are used to induce growth arrest, differentiation and sometimes apoptosis of the tumour cells (Liang et al, 1999; de Vos et al, 1997; Skowronski et al, 1994; Hedlund et al, 1997). ATRA and synthetic analogues exert their biological effects by binding to two families of retinoid receptors, […]. These are ligand-dependent transcription factors of the steroid/thyroid hormone nuclear receptor superfamily (Chambon 1994; Boehm et al, 1995). Activated RARs bind to retinoic acid-responsive elements (RAREs) in the promoters of genes and thus regulate gene expression. They also antagonize the activity of the tran- scription factor AP1 and thereby down-regulate the expression of some AP1-activated genes (Nagpal et al, 1995). One approach to unravelling the contributions of RAR sub-types to these actions has been the development of synthetic retinoids with selective activities at individual RARs and RXRs. For example, the diaryl- acetylenic retinoids allow separation of transactivation and AP1 antagonism functions at RAR (Nagpal et al, 1995). Recently, compounds that are selective for particular RAR sub-types have been synthesized: these include both agonists and antagonists (Chandraratna, 1995; Teng et al, 1999; Johnson et al, 1999). The functional selectivity of these compounds may open the way to achieving differentiation or apoptosis of tumour cells with minimal systemic side effects (Chandraratna, 1995). Cell lines that are commonly used in the evaluation of investiga- tional agents for prostate cancer include LNCaP, DU-145 and PC- 3. […] These lines are relatively insensitive to growth inhibition and induction of apoptosis by ATRA and by synthetic agonists. […] Fenretinide (4HPR) induces apoptosis of LNCaP and of PC-3 cells at 1-5 M and 25 µM, respectively (Pienta et al, 1993; Heish and Wu, 1997). Pfahl and colleagues examined the growth inhibitory effects of a panel of receptor-selective retinoids against DU145 and PC-3 cells and achieved complete growth inhibition and induction of apoptosis between 1 M and 10 M (Lu et al, 1999). […] Antagonists of retinoic acid receptors (RARs) are potent growth inhibitors of prostate carcinoma cells LA Hammond1 , CH Van Krinks2 , J Durham2 , SE Tomkins2 , RD Burnett3 , EL Jones1 , RAS Chandraratna3 and G Brown2 Divisions of 1 Cancer Studies and of 2 Immunity and Infection, University of Birmingham Medical School, Edgbaston, Birmingham B15 2TT, UK and 3 Retinoid Research, Allergan Inc., Irvine, California, USA Summary Novel synthetic antagonists of retinoic acid receptors (RARs) have been developed. To avoid interference by serum retinoids when testing these compounds, we established serum-free grown sub-lines (>3 years) of the prostate carcinoma lines LNCaP, PC3 and DU145. […] A component(s) of serum and of LNCaP-conditioned medium diminishes the activity of antagonists: this factor is not the most likely candidates IGF-1 and EGF. In vitro studies of RAR antagonists together with data from RAR-null mice lead to the hypothesis that RAR-regulated gene transcription is necessary for the survival and maintenance of prostate epithelium. […]

RARα = biological target: T2, RARα (Homo sapiens, UniProt P10276); assay: Binding to baculovirus-expressed RARα; set-up: made in house; details: baculovirus-expressed receptor
T2 sequence (P10276 1-462): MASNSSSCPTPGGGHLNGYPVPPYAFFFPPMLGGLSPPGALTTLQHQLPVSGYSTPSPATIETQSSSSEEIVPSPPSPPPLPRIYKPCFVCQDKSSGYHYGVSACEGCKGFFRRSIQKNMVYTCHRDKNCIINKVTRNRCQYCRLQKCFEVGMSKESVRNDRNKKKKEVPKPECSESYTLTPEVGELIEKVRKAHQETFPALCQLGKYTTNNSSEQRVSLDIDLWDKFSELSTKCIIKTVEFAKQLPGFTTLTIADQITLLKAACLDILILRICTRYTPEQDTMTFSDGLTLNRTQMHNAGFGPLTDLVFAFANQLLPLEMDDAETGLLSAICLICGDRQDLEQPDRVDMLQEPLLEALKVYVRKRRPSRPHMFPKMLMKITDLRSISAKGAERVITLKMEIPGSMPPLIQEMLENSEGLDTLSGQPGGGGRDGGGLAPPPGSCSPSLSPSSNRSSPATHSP
Excerpt: as §1

[1] = system: primary prostate carcinoma cells; assay: Growth of primary prostate carcinoma cells (flask cultures, passage 2); type: cell-based, human; details: 10 and 100 nM, two patients, days 3 and 6
Excerpt: Prostate cancer is one of the most common cancers in European and American males and has a high mortality rate (Landis et al, 1998; Rosenthal, 1998). Early disease is managed conservatively in Europe although in selected patients surgery is curative. In advanced disease, androgen ablation can produce symptomatic improvement, but the tumour often re-emerges in an androgen- independent and incurable form. One proposed treatment for androgen-independent prostate carcinoma is differentiation ther- apy, in which agents such as all-trans-retinoic acid (ATRA), 9-cis- retinoic acid and 1, 25-dihydroxyvitamin D3 (D3 ) are used to induce growth arrest, differentiation and sometimes apoptosis of the tumour cells (Liang et al, 1999; de Vos et al, 1997; Skowronski et al, 1994; Hedlund et al, 1997). ATRA and synthetic analogues exert their biological effects by binding to two families of retinoid receptors, […]. These are ligand-dependent transcription factors of the steroid/thyroid hormone nuclear receptor superfamily (Chambon 1994; Boehm et al, 1995). Activated RARs bind to retinoic acid-responsive elements (RAREs) in the promoters of genes and thus regulate gene expression. They also antagonize the activity of the tran- scription factor AP1 and thereby down-regulate the expression of some AP1-activated genes (Nagpal et al, 1995). […]

CCc1ccc(C2=CC(C)(C)Sc3ccc(C#Cc4ccc(C(=O)O)cc4)cc32)cc1 [AGN194310]
Kd (RARγ): 5 nM | Kd (RARα): 3 nM | cell growth of primary lines [1]: substan- tial growth inhibition
